# Assay results as given in patent US9901579B2, “Compositions comprising phosphodiesterase inhibitors for use in the treatment of a solid tumor in a human patient” (Sartar Therapeutics Ltd, priority 2013, dated 2018).
# Structures can show the parent of a compound that is named as a salt.
# Legend:
# Assay type in all cases: cell-based, human
# [1] = tested on: GIST cell cultures (GIST48 and GIST882); assay: xCELLigence System / RTCA DP proliferation analysis; settings: 10 μmol/L or higher concentration
# Text: Four different PDE3-inhibitors were used to block the activity of PDE3 enzymes and two kinase-inhibitors to block the activity of KIT and PDGFRA. Cilostazol, milrinone and amrinone were purchased from Sigma (St Louis, Mo., USA) and anagrelide hydrochloride was purchased from Tocris Bioscience (Bristol, UK). […] All other inhibitors were reconstituted in DMSO. In a preliminary analysis, multiple drug concentrations (from 0 to 100 μmol/L) were used to identify effective PDE3 inhibitor doses in the GIST cell lines. Effects on proliferation were analysed using xCELLigence System and the RTCA DP instrument (Acea Biosciences, San Diego, Calif., USA). […] Cell progression to apoptosis after anagrelide hydrochloride treatment was analysed in eight duplicate wells with a Click-iT TUNEL Alexa Fluor 488 Imaging Assay (Invitrogen, Carlsbad, Calif., USA) according to the manufacturer's instructions. Progression to apoptosis was measured after 48 hours and after 96 hours of drug treatments. Cell proliferation was examined by the MTT assay (Roche Diagnostics, Indianapolis, Ind., USA) and the xCELLigence System using the RTCA DP instrument (Acea Biosciences). […] At the end of the incubation, cell proliferation was analyzed from eight duplicate wells by adding 10 μL of the MTT reagent into each well and incubating at 37° C. for four hour. The plates were read with a Multiscan EX Microplate photometer (Thermo Scientific, Rockford, Ill., USA) at the wavelength of 540 nm. For the xCELLigence proliferation assay GIST48 and GIST882 cells were plated at a density of 2.5×10^4 cells/well. Before plating GIST882 cells, the wells were thin coated with Collagen I Rat Tail (Invitrogen, Carlsbad, Calif., USA) according to the manufacturer's instructions using 7.5 μg/mL final collagen concentration.
# [2] = tested on: LPS141 liposarcoma cell line; assay: MTT cell proliferation assay, LPS141; settings: 10 μmol/L, 96 hours (four day culture)
# Experimental: (§1) GIST882 is a primary human GIST cell line with a homozygous missense mutation in KIT exon 13, encoding a […] mutant KIT oncoprotein (Tuveson, D. A. 2001). […] GIST48 has a primary exon 11 missense mutation and a secondary exon 17 missense mutation (Bauer, S. 2006). LPS141 is a liposarcoma cell line that is established from patient derived de-differentiated liposarcoma (Snyder, E. L. 2009). The cell lines were cultured in a RPMI 1640 medium (GIBCO, California USA) supplemented with 20% fetal bovine serum (FBS) and 2% penicillin/streptomycin. Four different PDE3-inhibitors were used to block the activity of PDE3 enzymes and two kinase-inhibitors to block the activity of KIT and PDGFRA. […] Effects on proliferation were analysed using xCELLigence System and the RTCA DP instrument (Acea Biosciences, San Diego, Calif., USA). […] Cell progression to apoptosis after anagrelide hydrochloride treatment was analysed in eight duplicate wells with a Click-iT TUNEL Alexa Fluor 488 Imaging Assay (Invitrogen, Carlsbad, Calif., USA) according to the manufacturer's instructions. Progression to apoptosis was measured after 48 hours and after 96 hours of drug treatments. […] At the end of the incubation, cell proliferation was analyzed from eight duplicate wells by adding 10 μL of the MTT reagent into each well and incubating at 37° C. for four hour. […]
# GIST882 cells [3] = assay: Click-iT TUNEL apoptosis assay, GIST882; settings: anagrelide hydrochloride 10 μmol/L, imatinib 0.5 μmol/L
# Experimental: (§2) GIST882 is a primary human GIST cell line with a homozygous missense mutation in KIT exon 13, encoding a […] mutant KIT oncoprotein (Tuveson, D. A. 2001). […] GIST48 has a primary exon 11 missense mutation and a secondary exon 17 missense mutation (Bauer, S. 2006). LPS141 is a liposarcoma cell line that is established from patient derived de-differentiated liposarcoma (Snyder, E. L. 2009). The cell lines were cultured in a RPMI 1640 medium (GIBCO, California USA) supplemented with 20% fetal bovine serum (FBS) and 2% penicillin/streptomycin. Four different PDE3-inhibitors were used to block the activity of PDE3 enzymes and two kinase-inhibitors to block the activity of KIT and PDGFRA. Cilostazol, milrinone and amrinone were purchased from Sigma (St Louis, Mo., USA) and anagrelide hydrochloride was purchased from Tocris Bioscience (Bristol, UK). […] All other inhibitors were reconstituted in DMSO. […] Effects on proliferation were analysed using xCELLigence System and the RTCA DP instrument (Acea Biosciences, San Diego, Calif., USA). […] Cell progression to apoptosis after anagrelide hydrochloride treatment was analysed in eight duplicate wells with a Click-iT TUNEL Alexa Fluor 488 Imaging Assay (Invitrogen, Carlsbad, Calif., USA) according to the manufacturer's instructions. Progression to apoptosis was measured after 48 hours and after 96 hours of drug treatments.
# GIST48 cells = assay: Click-iT TUNEL apoptosis assay, GIST48; settings: for apoptotic GIST48 cells: anagrelide hydrochloride 10 μmol/L, imatinib 0.5 μmol/L
# Experimental: as §2
# GIST882 cells [4] = assay: MTT cell proliferation assay, GIST882; settings: 10 μmol/L, 96 hours (four day culture)
# Experimental: as §1
compound,measurement,setting,value
O=C1CCc2cc(OCCCCc3nnnn3C3CCCCC3)ccc2N1 [cilostazol],anti-proliferative effect on GIST cell cultures,[1],did not influence cell proliferation
Cc1[nH]c(=O)c(C#N)cc1-c1ccncc1 [milrinone],anti-proliferative effect on GIST cell cultures,[1],did not influence cell proliferation
"O=C1CN2Cc3c(ccc(Cl)c3Cl)N=C2N1 [anagrelide hydrochloride, 6,7-dichloro-1,5-dihydroimidazo[2,1-b]quinazolin-2(3H)-one]",anti-proliferative effect on GIST cell cultures,[1],some anti-proliferative effect
same,effect on LPS141 cell growth in comparison with DMSO,[2],the only PDE3 inhibitor that had an effect
same,apoptotic GIST882 cells,GIST882 cells [3]; after 48 hours,22%
same,apoptotic GIST882 cells,GIST882 cells [3]; after 96 hours,47%
same,apoptotic GIST48 cells,GIST48 cells; after 48 hours,0.6%
same,apoptotic GIST48 cells,GIST48 cells; after 96 hours,1%
same,DNA fragmentation in GIST48 cells,GIST48 cells; anagrelide hydrochloride treatment,only slight DNA fragmentation
same,effect on GIST882 cell growth in comparison with DMSO,GIST882 cells [4],the only PDE3 inhibitor that had an effect
Nc1cc(-c2ccncc2)c[nH]c1=O [amrinone],anti-proliferative effect on GIST cell cultures,[1],some anti-proliferative effect
